Measurements taken from publication PMC8421406, “C9orf72-derived arginine-rich poly-dipeptides impede phase modifiers” (Nature Communications, 2021).
Where no end group is shown, it is not given here. HA = HA epitope tag

Legend:
[1] = test system: GFP:hnRNPA2-LC / mCh:hnRNPA2-LC hydrogel; test: Hydrogel binding assay, hnRNPA2-LC; format: biochemical; details: 1.0 µM GFP:hnRNPA2-LC, Kapβ2 1.0 µM, PR20 1.0 µM
Text: Expression plasmids for recombinant proteins (GFP/mCherry fusion LC-domain of FUS (residue 2–214, GFP/mCh:FUS-LC) and GFP/mCherry fusion LC-domain of hnRNPA2 (residue 181–341, GFP/mCh:hnRNPA2-LC)) were obtained from the Steven L. McKnight Laboratory. Expression plasmid for GFP:FUS-LC fusion NLS (residue 501–526, GFP:FUS-LC:NLS), mCh fusion LC-domain of TDP43 (residue 262–414, mCh:TDP43-LC), and GFP-tagged cNLS (residue 78–99) fusion TDP43-LC (GFP:cNLS:TDP43-LC) were constructed using In-Fusion HD Cloning Kit (Takara Bio, Inc.). GFP/mCh:FUS-LC, GFP:FUS-LC:NLS, and GFP/mCh:hnRNPA2-LC were expressed in E. coli BL21(DE3) cells with 0.5 mM IPTG at 20 °C overnight and purified by Ni-NTA Agarose (FUJIFILM Wako Pure Chemical Corporation), as described in a previous study. GFP:cNLS:TDP43-LC were expressed with 1.0 mM IPTG at 37 °C for 3 h and mCh:TDP43-LC were expressed with 0.5 mM IPTG at 16 °C overnight. GFP:cNLS:TDP43-LC and mCh:TDP43-LC were purified by Ni-NTA as described in a previous study[48] with some modifications. […] Relative intensity of GFP signals across the hydrogel droplets were measured in triplicate by using the profile plot mode in ImageJ. […]

[2] = test system: FUS droplets (MBP:FUS/MBP:FUS:EGFP) / Kapβ2; test: Fluorescence microscopy of FUS droplets; format: biochemical; details: 16 μM Kapβ2, 16 μM Kapβ2–M9M complex, 50 μM PR20, repeated three times

**Q.** Which results are given for “PR20: twenty repeats of proline:arginine with an HA epitope tag at the C terminus, synthesized by SCRUM, Inc. (PRPRPRPRPRPRPRPRPRPRPRPRPRPRPRPRPRPRPRPR-{HA})”?
**A.** Effect on ability of Kapβ2 to block hydrogel binding of hnRNPA2-LC [1]: inhibited the ability of Kapβ2; Effect on FUS droplets (microscopy) [2]: not melted in the presence of PR20
